Data published in patent US5869081A, “Progesterone vaginal ring for treatment of infertility” (priority 1996, dated 1999).

Key:
[1] = test system: rat embryos at the two cell stage; conditions: cultured in vitro in the presence vs absence of hormone; cited from earlier work
[2] = oral administration; rapid clearance by the liver; cited from earlier work
endometrium = assay: histology / dating of endometrial biopsies (Example I); assay type: in vivo, human
Protocol: Endometrial biopsies were performed with an endometrial suction curette (Z-Sampler, California) on day +3 in six patients. Three patients using the 10 mg vaginal ring had endometrial biopsies repeated on day +7. […] Steril. 1:3-25 was used for assessing the day of the menstrual cycle. Endometrial tissue was processed routinely to obtain hematoxylin and eosin stained sections. These were coded and examined by the same pathologist, who was blinded for the hormone replacement therapy of each patient.

[3] = human, in vivo
[4] = test system: normogonadal women undergoing IVF-ET; assay: clinical pregnancy rate in IVF-ET (Example IV); assay type: in vivo, human; conditions: daily i.m. injection of 50 mg, 10/26
Protocol: Forty-nine normogonadal women undergoing IVF-ET were randomly assigned to receive a progesterone containing vaginal ring having an in vitro release rate of 10 mg per day (n=23) or a daily intramuscular (i.m.) injection of 50 mg progesterone (n=26). In order to induce multiple follicle growth, subjects received a sequential treatment with a gonadotropin releasing hormone (GnRH) agonist, human menopausal gonadotropin (hMG) and human […] gonadotropin (hCG). Oocytes were aspirated thirty-six hours after administering hCG, and treatment with progesterone, either i.m. or by vaginal ring, began at this time. Progesterone treatment continued for a maximum of seven weeks.

[5] = test system: functionally agonadal women; assay: clinical pregnancy and nidation rates in an oocyte donation cycle (Example III); assay type: in vivo, human
Protocol: Seventeen functionally agonadal women used a progesterone containing vaginal ring having an in vitro release rate of 10 mg per day as the only source of progesterone during an oocyte donation cycle. When pregnancy was documented on day 12 after embryo transfer, the 10 mg ring was replaced by a vaginal ring having an in vitro release rate of 15 mg, which was left in place until the twelfth week of pregnancy. In the same period of time eighteen other women received daily i.m. injections of 100 mg progesterone. The decision to use one or the other route of administration was not randomized.

For `CC(=O)[C@H]1CC[C@H]2[C@@H]3CCC4=CC(=O)CC[C@]4(C)[C@H]3CC[C@]12C` [progesterone], the “development to the blastocyst stage” value [1] is given as “better development to the blastocyst stage”, the “bioavailability in the circulation” value [2] is given as “low bioavailability” and the “circulatory progesterone level with adequate biological effect on the endometrium” value (endometrium; intravaginal delivery) is given as 12-15 nmol/L. For the same compound, the advanced endometrial pattern (endometrium; women supplemented with intramuscular progesterone) was “did not exhibit this advanced pattern”, the systemic side effects [3] was “no systemic side effects” and the clinical pregnancy rate [4] was 38.4%. The clinical pregnancy rate ([5]; daily i.m. injections of 100 mg, eighteen women) was 38.9% and the “nidation rate (total number of gestational sacs/total number of embryos transferred)” value ([5]; i.m. progesterone 100 mg daily, 9/66) was 13.6%.
